From patent US11497731B2, “β-lactamase inhibitor” (NATIONAL UNIVERSITY CORPORATION TOKAI NATIONAL HIGHER …, priority 2018, dated 2022)
Converted amounts (≈) assume the structure as drawn. Read-outs that look alike come from different tables or passages of the source.

Legend:
[1] = target: NDM-1 (Klebsiella pneumoniae, UniProt C7C422); assay: Inhibition constant (Ki) measurement test, NDM-1; assay type: biochemical
Description: (§1) The inhibition constant (Ki) measurement test was performed in the following manner. The inhibition constant (Ki) was measured using various metallo-β-lactamases (final concentration: 10 nM). The imipenem decomposition activity (Δabs/min) at each point under the conditions of absorbance: 298 nm and temperature: 30° C. was measured by varying the concentration of imipenem as a substrate and the concentrations of test substances (compounds A to E) as inhibitors. Each measured value was fitted to the Lineweaver-Burk plot equation to calculate Ki.
(§2) The test was performed in the same manner as in Test Example 6, except that X2a, X2b, X2c, X2d, X3a, and X4 were used as test substances (inhibitors).

[2] = target: IMP-1 (Serratia marcescens, UniProt P52699); assay: Inhibition constant (Ki) measurement test, IMP-1; assay type: biochemical
IMP-1, sequence (P52699 19-246, looked up, species assumed): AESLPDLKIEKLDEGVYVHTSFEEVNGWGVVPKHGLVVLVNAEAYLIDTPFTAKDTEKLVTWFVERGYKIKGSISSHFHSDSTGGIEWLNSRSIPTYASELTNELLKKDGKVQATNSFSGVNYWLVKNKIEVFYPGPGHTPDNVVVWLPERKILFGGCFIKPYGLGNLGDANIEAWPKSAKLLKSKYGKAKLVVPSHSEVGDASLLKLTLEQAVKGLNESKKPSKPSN
Description: as §1, §2

[3] = target: VIM-2 (Escherichia coli, UniProt Q5U7L7); assay: Inhibition constant (Ki) measurement test, VIM-2; assay type: biochemical
Description: as §1, §2

[4] = target: metallo-β-lactamase (IMP-1) (Serratia marcescens, UniProt P52699); assay: Enzyme activity measurement test (imipenem decomposition); assay type: biochemical
metallo-β-lactamase (IMP-1), sequence (P52699 19-246, looked up, species assumed): as above
Description: A metallo-β-lactamase (IMP-1) (final concentration: 10 nM), and imipenem (final concentration: 100 μM) as a substrate were used. The imipenem decomposition activity (Dabs/min) at each point under the conditions of absorbance: 298 nm and temperature: 30° C. was measured by varying the concentrations of test substances (compounds Nos. 9-7, 9-8, and 9-9) as inhibitors (0 μM, 10 μM, and 100 μM). The activity when no test substance was added was defined as 100%, and the relative activity value when each test substance was individually added was calculated.

[5] = system: bacteria into which a plasmid encoding VIM-2 was introduced (pBCSK (+)/E. coli DH5a); assay: Drug susceptibility test (MIC), VIM-2-producing strain; assay type: cell-based; settings: for Ceftazidime MIC VIM-2-producing strain: MIC of ceftazidime with inhibitor 10 μg/mL; for MIC: Escherichia coli
Description: (§3) Plates for drug susceptibility test measurement were prepared by using 96- or 384-well U-bottom plates, a Mueller-Hinton liquid medium, and antimicrobial drugs (ceftazidime (CAZ), imipenem (IPM), meropenem (MPM), doripenem (DPM), and biapenem (BPM)). A 1/2 antimicrobial drug dilution series was made up to well 11 of, for example, a 96-well U-bottom plate so that the leftmost well 1 of row A contained an antimicrobial drug at the maximum concentration, the antimicrobial drug concentration in well 2 to the right of well 1 was 1/2 of the maximum concentration, the antimicrobial drug concentration in well 3 to the right of well 2 was 1/4 of the maximum concentration, and so on. […] An antimicrobial drug dilution series was made in each of rows B and C in the same manner as in row A. Further, 10 μg/mL and 50 μg/mL of a test substance (compound A) were added to row B and row C, respectively (FIG. 1).
(§4) Bacteria into which a plasmid encoding a class B β-lactamase (metallo-β-lactamase (MBL): NDM-1, or VIM-2) was introduced (pBCSK (+)/E. coli DH5a) were used as test bacteria. The test bacteria were adjusted to 10^8 cfu/mL with a Mueller-Hinton medium. Further, the test bacteria were diluted 10-fold with a Mueller-Hinton medium (10^7 cfu/mL). 5 μl of the test bacteria was collected and inoculated into the plates for drug susceptibility test measurement. After overnight culture at 35° C., the growth of the test bacteria was visually checked. The concentration of the antimicrobial drug in a well containing the lowest concentration of the antimicrobial drug among the wells in which no growth of the test bacteria was confirmed was defined as the minimal inhibitory concentration value (FIG. 1).
(§5) The drug susceptibility test was performed in the same manner as in Test Example 1, except that compounds A to C and E to I were used as test substances.
(§6) The test was performed in the same manner as in Test Example 1, except that X2a, X2b, X2c, X2d, X3a, and X4 were used as test substances (inhibitors). The inhibitor concentration was 10 μg/mL.

[6] = system: β-lactamase-producing bacteria; assay: Drug susceptibility tests, summary statements over all strains; assay type: cell-based, E. coli; settings: addition of the compound
Description: as §3, §4

[7] = system: bacteria into which a plasmid encoding IMP-1 was introduced (pBCSK (+)/E. coli DH5a); assay: Drug susceptibility test (MIC), IMP-1-producing strain; assay type: cell-based; settings: for Meropenem MIC IMP1-producing strain: MIC of meropenem with inhibitor 10 μg/mL; for MIC: Escherichia coli
[8] = system: β-lactamase; assay: Inhibition constant (Ki) tests, summary statements over all enzymes; assay type: biochemical
Description: as §1, §2

[9] = system: bacteria into which a plasmid encoding NDM-1 was introduced (pBCSK (+)/E. coli DH5a); assay: Drug susceptibility test (MIC), NDM-1-producing strain; assay type: cell-based; settings: for Meropenem MIC NDM-1-producing strain: MIC of meropenem with inhibitor 10 μg/mL; for MIC: Escherichia coli
Description: as §3, §4, §5, §6

[10] = system: Empty vector (no class B lactamase produced), pBCSK (+)/E. coli DH5a; assay: Drug susceptibility test (MIC), empty vector strain; assay type: cell-based; settings: Escherichia coli
[11] = system: bacteria (K. pneumoniae) in which a plasmid encoding NDM and VIM was introduced; assay: Mouse abdominal infection model, K. pneumoniae NDM and VIM strain; assay type: in vivo, mice; settings: antimicrobial drug 2 mg/kg or 8 mg/kg, test substance 10 mg/kg
Description: The laboratory strain grown overnight on a Mueller-Hinton agar medium was scraped with a sterile swab, suspended in physiological saline, adjusted to 2-5×10^8 CFU/mL, and mixed with an equal amount of a 10% mucin solution (1-2.5×10^8 CFU/mL) to prepare a bacterial liquid. Mice (Crl:CD1(ICR), male, 4 weeks old (Charles River Laboratories Japan, Inc.)) acclimated for 4 days after arrival were weighed, and then infected by intraperitoneal administration of 250 μL of the prepared bacterial liquid per mouse. An antimicrobial drug (meropenem trihydrate (WAKO 137-15674)) and the test substance were dissolved in physiological saline. A first intraperitoneal administration of the antimicrobial drug (0.2 mg/kg) and/or the test substance (100 mg/kg) was performed 1 hour after infection. A second administration was performed 3 hours after infection, in the same manner as the first administration (up to this point, day 0).
The animal study was performed in the same manner as in Test Example 12, except that in addition to a strain of Escherichia coli in which a plasmid encoding a class B lactamase (IMP-1) was introduced, bacteria (K. pneumoniae) in which a plasmid encoding NDM and VIM was introduced were used as a laboratory strain, compound I was administered as a test substance, […], and the dosage of the test substance was 10 mg/kg. […]

[12] = imipenem substrate, enzyme 10 nM, 30° C., Lineweaver-Burk, read-out: Inhibition constant Ki NDM-1
[13] = imipenem substrate, enzyme 10 nM, 30° C., Lineweaver-Burk, read-out: Inhibition constant Ki IMP-1
[14] = imipenem substrate, enzyme 10 nM, 30° C., Lineweaver-Burk, read-out: Inhibition constant Ki VIM-2
[15] = Test Example 11, same manner as Test Example 6, read-out: Enzymatic Inhibition Effect Ki NDM-1
[16] = Test Example 11, same manner as Test Example 6, read-out: Enzymatic Inhibition Effect Ki IMP-1
[17] = Test Example 11, same manner as Test Example 6, read-out: Enzymatic Inhibition Effect Ki VIM-2
[18] = meropenem alone, no test substance added, Table 2

NDM-1, sequence (C7C422 29-270, looked up, species assumed): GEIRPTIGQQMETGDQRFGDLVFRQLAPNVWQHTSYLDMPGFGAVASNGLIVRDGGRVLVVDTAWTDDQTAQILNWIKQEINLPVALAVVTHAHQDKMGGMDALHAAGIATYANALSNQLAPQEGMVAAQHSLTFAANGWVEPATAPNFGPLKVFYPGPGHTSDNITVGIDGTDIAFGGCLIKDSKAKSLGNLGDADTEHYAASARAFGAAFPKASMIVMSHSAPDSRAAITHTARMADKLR

| Compound | Ki [1, 12] | Ki [2, 13] | Ki [3, 14] | Ki [1, 15] | Ceftazidime MIC VIM-2-producing strain [5] | Ki [2, 16] | effect on MICs of the antimicrobial drugs (statement on Tables 1, 2, 4) [6] | Ki [3, 17] | Meropenem MIC IMP1-producing strain [7] | β-lactamase activity inhibition (statement on Tables 2, 5) [8] | Meropenem MIC NDM-1-producing strain [9] | other results |
| --- | --- | --- | --- | --- | --- | --- | --- | --- | --- | --- | --- | --- |
| Cc1c(C(=O)O)c(S(N)(=O)=O)c(C)n1-c1ccccc1 [Compound D] | 10200 nM | 7510 nM | 20800 nM | – | – | – | – | – | – | – | – | – |
| Cc1oc(C)c(S(=O)(=O)N2CCC(C)(C)C2)c1C(=O)O [9-8] | – | – | – | – | – | – | – | – | – | – | – | β-lactamase activity inhibition (statement on Table 3) [4]: inhibits β-lactamase activity |
| NS(=O)(=O)c1sc(Cl)cc1C(=O)O [C] | 19300 nM | 19100 nM | 2290 nM | – | – | – | – | – | – | – | – | – |
| CCc1c(C(=O)O)c(S(N)(=O)=O)c(C)n1C [Compound X2a] | – | – | – | 1830 nM | 1 µg/mL | 1770 nM | decreases the MICs | 23 nM | 0.031 µg/mL | inhibits β-lactamase activity | 0.0625 µg/mL | – |
| CC(C)(O/N=C(\C(=O)N[C@@H]1C(=O)N2C(C(=O)[O-])=C(C[n+]3ccccc3)CS[C@H]12)c1csc(N)n1)C(=O)O [CAZ, ceftazidime, reference compound] | – | – | – | – | – | – | – | – | – | – | – | MIC ([5]; read-out: Ceftazidime MIC VIM-2-producing strain, No inhibitor): 16 µg/mL (≈ 29.3 µM); MIC ([5]; read-out: MIC CAZ): 4 µg/mL (≈ 7.32 µM); MIC VIM-2 ceftazidime, None ([5]; ceftazidime alone, no test substance added, Table 2): 16 mg I^−1; MIC ([10]; read-out: MIC CAZ): 0.25 µg/mL (≈ 0.457 µM); MIC ([7]; read-out: MIC CAZ): 256 µg/mL (≈ 468 µM); MIC ([9]; read-out: MIC CAZ): > 1020 µg/mL |
| CCCc1oc(CCC)c(S(N)(=O)=O)c1C(=O)O [Compound G] | 290 nM | 380 nM | 460 nM | – | – | – | – | – | – | – | – | – |
| CCc1c(S(N)(=O)=O)c(C(=O)O)c(-c2ccccc2)n1C [Compound X2d] | – | – | – | 80 nM | 1 µg/mL | 110 nM | decreases the MICs | 33 nM | 0.031 µg/mL | inhibits β-lactamase activity | 0.0625 µg/mL | survival rate (FIG. 13) [11]: notably improved |
| NS(=O)(=O)c1c(C2CCCC2)oc(C2CCCC2)c1C(=O)O [Compound H] | 180 nM | 1270 nM | 760 nM | – | – | – | – | – | – | – | – | – |
| CCc1oc(CC)c(S(N)(=O)=O)c1C(=O)O [Compound F] | 920 nM | 300 nM | 1010 nM | – | – | – | – | – | – | – | – | – |
| CCc1c(C(=O)O)c(S(N)(=O)=O)c(C(C)C)n1C [Compound X4] | – | – | – | 4300 nM | 1 µg/mL | 900 nM | decreases the MICs | 17 nM | 0.031 µg/mL | inhibits β-lactamase activity | 0.5 µg/mL | – |
| CCc1c(C(=O)O)c(S(N)(=O)=O)c(-c2ccccc2)n1C [Compound X2c] | – | – | – | 1500 nM | 1 µg/mL | 1240 nM | decreases the MICs | 19 nM | 0.031 µg/mL | inhibits β-lactamase activity | 0.5 µg/mL | – |
| CCc1c(S(N)(=O)=O)c(C(=O)O)c(C)n1C [Compound X2b] | – | – | – | 1730 nM | 1 µg/mL | 980 nM | decreases the MICs | 100 nM | 0.031 µg/mL | inhibits β-lactamase activity | 0.0625 µg/mL | – |
| C[C@@H](O)[C@H]1C(=O)N2C(C(=O)O)=C(S[C@@H]3CN[C@H](C(=O)N(C)C)C3)[C@H](C)[C@H]12 [MPM, meropenem, reference compound] | – | – | – | – | – | – | – | – | – | – | – | MIC ([5]; read-out: MIC MPM): 0.063 µg/mL (≈ 0.164 µM); MIC ([10]; read-out: MIC MPM): 0.016 µg/mL (≈ 0.0417 µM); MIC ([7]; read-out: MIC MPM): 0.5 µg/mL (≈ 1.3 µM); MIC ([7]; read-out: Meropenem MIC IMP1-producing strain, No inhibitor): 2 µg/mL (≈ 5.22 µM); MIC IMP-1 meropenem, None [7, 18]: 1 mg I^−1; MIC ([9]; read-out: Meropenem MIC NDM-1-producing strain, No inhibitor): 4 µg/mL (≈ 10.4 µM); MIC NDM-1 meropenem, None [9, 18]: 64 mg I^−1 |
| Cc1c(C(=O)O)c(S(N)(=O)=O)c(C)n1C [Compound E] | 9080 nM | 1230 nM | 420 nM | – | – | – | – | – | – | – | – | – |
| CCc1ccccc1CNS(=O)(=O)c1c(C)oc(C)c1C(=O)O [9-9] | – | – | – | – | – | – | – | – | – | – | – | β-lactamase activity inhibition (statement on Table 3) [4]: inhibits β-lactamase activity |
| NS(=O)(=O)c1sccc1C(=O)O [B] | 7680 nM | 34100 nM | 15500 nM | – | – | – | – | – | – | – | – | – |
| CCc1c(C(=O)O)c(S(N)(=O)=O)c(CC)n1N [Compound X3a] | – | – | – | 22100 nM | 4 µg/mL | 21400 nM | decreases the MICs | 1970 nM | 0.031 µg/mL | inhibits β-lactamase activity | 0.5 µg/mL | – |
| Cc1oc(C)c(S(=O)(=O)N2CC3CCCC3C2)c1C(=O)O (centres unmarked) [9-7] | – | – | – | – | – | – | – | – | – | – | – | β-lactamase activity inhibition (statement on Table 3) [4]: inhibits β-lactamase activity |
